Test results taken from paper PMC11062894, “Protein-based bandpass filters for controlling cellular signaling with chemical inputs” (Nature Chemical Biology, 2023).
Several values for one entry are separate records, joined by “and”; a condition that tells them apart may be missing. Identical values can stand only once.

Tested on: GEMS receptors with CBPvene (Bcl2–LD3 and Bcl2high variants), STAT3-driven SEAP in HEK293T cells
Test: GEMS SEAP reporter assay, CBPvene (Bcl2high, LD3-v and Bcl2-v variants) with venetoclax
Assay type: cell-based
[1] = CBPVene-v4, Venetoclax 10000 nM
[2] = CBPVene-v4-Bcl2v2, Venetoclax 1 nM
[3] = CBPVene-v4-Bcl2v2, Venetoclax 3.16 nM
[4] = CBPVene-v4-Bcl2v2, Venetoclax 10 nM
[5] = CBPVene-v4-Bcl2v2, Venetoclax 31.6 nM
[6] = CBPVene-v4-Bcl2v2, Venetoclax 100 nM
[7] = CBPVene-v4-Bcl2v2, Venetoclax 316 nM
[8] = CBPVene-v4-Bcl2v2, Venetoclax 1000 nM
[9] = CBPVene-v4-Bcl2v2, Venetoclax 3160 nM
[10] = CBPVene-v4-Bcl2v2, Venetoclax 10000 nM
[11] = CBPVene-v4-LD3v1, Venetoclax 1 nM
[12] = CBPVene-v4-LD3v1, Venetoclax 3.16 nM

## CC1(C)CCC(CN2CCN(c3ccc(C(=O)NS(=O)(=O)c4ccc(NCC5CCOCC5)c([N+](=O)[O-])c4)c(Oc4cnc5[nH]ccc5c4)c3)CC2)=C(c2ccc(Cl)cc2)C1 [Venetoclax]
CBPVene-v4, Venetoclax 0.01 nM
  Raw data of Independent repeat of CBPVene-v4 vs CBPVene-v4-LD3v1: 35.2999 and 34.8178 and 35.7656
CBPVene-v4, Venetoclax 1 nM
  Normalized data Figure 5c: 4.2459 and 4.713 and 4.374
  Normalized data Figure 5f: 3.9625 and 4.391 and 3.175
  Raw data Figure 5c: 40.3634 and 39.0365 and 35.7348
  Raw data Figure 5f: 25.8055 and 26.2397 and 18.4029
  Raw data of Independent repeat of CBPVene-v4 vs CBPVene-v4-LD3v1: 38.7674 and 35.097 and 34.871
CBPVene-v4, Venetoclax 3.16 nM
  Normalized data Figure 5c: 3.941 and 4.809 and 4.361
  Normalized data Figure 5f: 3.622 and 4.227 and 3.164
  Raw data Figure 5c: 37.466 and 39.8351 and 35.629
  Raw data Figure 5f: 23.589 and 25.2624 and 18.3382
  Raw data of Independent repeat of CBPVene-v4 vs CBPVene-v4-LD3v1: 37.9892 and 34.5814 and 35.8384
CBPVene-v4, Venetoclax 10 nM
  Normalized data Figure 5c: 8.251 and 9.2534 and 8.61
  Normalized data Figure 5f: 5.138 and 5.367 and 4.508
  Raw data Figure 5c: 78.4344 and 76.6512 and 70.3479
  Raw data Figure 5f: 33.4586 and 32.0727 and 26.1315
  Raw data of Independent repeat of CBPVene-v4 vs CBPVene-v4-LD3v1: 40.747 and 40.7067 and 37.4113
CBPVene-v4, Venetoclax 31.6 nM
  Normalized data Figure 5c: 23.4087 and 23.5513 and 23.3621
  Normalized data Figure 5f: 15.4727 and 18.6639 and 9.968
  Raw data Figure 5c: 222.533 and 195.089 and 190.881
  Raw data Figure 5f: 100.765 and 111.541 and 57.7785
  Raw data of Independent repeat of CBPVene-v4 vs CBPVene-v4-LD3v1: 75.7769 and 63.5945 and 72.9306
CBPVene-v4, Venetoclax 100 nM
  Normalized data Figure 5c: 64.2766 and 73.1224 and 63.32
  Normalized data Figure 5f: 42.576 and 45.1446 and 47.2654
  Raw data Figure 5c: 611.042 and 605.715 and 517.36
  Raw data Figure 5f: 277.273 and 269.798 and 273.956
  Raw data of Independent repeat of CBPVene-v4 vs CBPVene-v4-LD3v1: 129.31 and 117.373 and 126.839
CBPVene-v4, Venetoclax 316 nM
  Normalized data Figure 5c: 100
  Normalized data Figure 5f: 68.7371 and 83.2998 and 76.2167
  Raw data Figure 5c: 950.644 and 828.357 and 817.055
  Raw data Figure 5f: 447.645 and 497.825 and 441.762
  Raw data of Independent repeat of CBPVene-v4 vs CBPVene-v4-LD3v1: 169.324 and 158.179 and 180.661
CBPVene-v4, Venetoclax 1000 nM
  Normalized data Figure 5c: 99.3535 and 99.2484 and 89.7215
  Normalized data Figure 5f: 100
  Raw data Figure 5c: 944.498 and 822.131 and 733.074
  Raw data Figure 5f: 651.243 and 597.631 and 579.613
  Raw data of Independent repeat of CBPVene-v4 vs CBPVene-v4-LD3v1: 146.952 and 139.539 and 151.905
CBPVene-v4, Venetoclax 3160 nM
  Normalized data Figure 5c: 79.357 and 89.4953 and 82.0208
  Normalized data Figure 5f: 65.0047 and 75.3611 and 76.07
  Raw data Figure 5c: 754.403 and 741.34 and 670.156
  Raw data Figure 5f: 423.338 and 450.382 and 440.912
  Raw data of Independent repeat of CBPVene-v4 vs CBPVene-v4-LD3v1: 80.4284 and 77.0562 and 76.9119
[1]
  Normalized data Figure 5c: 37.7692 and 41.8946 and 33.9505
  Normalized data Figure 5f: 42.6019 and 46.7992 and 47.9312
  Raw data Figure 5c: 359.051 and 347.036 and 277.394
  Raw data Figure 5f: 277.442 and 279.687 and 277.816
  Raw data of Independent repeat of CBPVene-v4 vs CBPVene-v4-LD3v1: 30.3195 and 25.7432 and 26.899
[2]
  Normalized data Figure 5f: 10.7266 and 9.876 and 10.4991
  Raw data Figure 5f: 31.1918 and 36.3952 and 31.7379
[3]
  Normalized data Figure 5f: 10.8133 and 9.981 and 9.46
  Raw data Figure 5f: 31.4437 and 36.7806 and 28.5959
[4]
  Normalized data Figure 5f: 12.5098 and 10.2311 and 12.3238
  Raw data Figure 5f: 36.377 and 37.7021 and 37.2539
[5]
  Normalized data Figure 5f: 23.9871 and 21.8452 and 18.9874
  Raw data Figure 5f: 69.7518 and 80.5008 and 57.3972
[6]
  Normalized data Figure 5f: 72.8611 and 61.7154 and 72.9933
  Raw data Figure 5f: 211.871 and 227.425 and 220.652
[7]
  Normalized data Figure 5f: 100
  Raw data Figure 5f: 290.788 and 368.506 and 302.291
[8]
  Normalized data Figure 5f: 80.3655 and 74.9934 and 84.5393
  Raw data Figure 5f: 233.694 and 276.355 and 255.555
[9]
  Normalized data Figure 5f: 44.2102 and 40.566 and 46.2986
  Raw data Figure 5f: 128.558 and 149.488 and 139.957
[10]
  Normalized data Figure 5f: 14.2742 and 12.3963 and 14.8986
  Raw data Figure 5f: 41.5078 and 45.6809 and 45.0373
CBPVene-v4-LD3v1, Venetoclax 0.01 nM
  Raw data of Independent repeat of CBPVene-v4 vs CBPVene-v4-LD3v1: 13.3313 and 13.792 and 13.1319
[11]
  Normalized data Figure 5c: 19.7956 and 13.458 and 12.3801
  Raw data Figure 5c: 19.1053 and 16.682 and 17.9097
  Raw data of Independent repeat of CBPVene-v4 vs CBPVene-v4-LD3v1: 12.6379 and 12.8648 and 13.2123
[12]
  Normalized data Figure 5c: 17.4061 and 14.8696 and 11.4945
  Raw data Figure 5c: 16.7992 and 18.4317 and 16.6285
  Raw data of Independent repeat of CBPVene-v4 vs CBPVene-v4-LD3v1: 10.9947 and 13.5809 and 10.4154
CBPVene-v4-LD3v1, Venetoclax 10 nM
  Normalized data Figure 5c: 20.3471 and 18.6998 and 14.8112
